The record followed here is patent publication US9845292B2 (Max-Planck-Gesellschaft zur Förderung der Wissenschaften …, priority 2013, dated 2017).

One assay concerns the target T1, FKBP51 (Homo sapiens, UniProt Q13451).
T1 sequence (Q13451 42-130 limits assumed): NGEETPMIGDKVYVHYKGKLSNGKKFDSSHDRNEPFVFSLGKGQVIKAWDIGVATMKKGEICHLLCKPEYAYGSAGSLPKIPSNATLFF
Briefly: Fluorescence polarization binding assay, FK1-domain of FKBP51WT with tracer F4. Also on record: Purified FK1-domains of FKBP51WT (4.5 nM) with F4 (3 nM), FKBP52WT (400 nM) with F2 (20 nM); made in house; host or cells: E. coli BL21(DE3)pLysS. The settings on record: read-out: Affinity(Ki) for FKBP51. The protocol: (§1) The target protein was also diluted in this assay buffer at double the highest concentration required for the final sample. This protein stock was used for a 1:1 serial dilution.
(§2) The inventive compound was dissolved in DMSO to reach a 100-times concentrated stock solution. This was used for a 1:1 serial dilution in DMSO.
(§3) For FKBP12, −51, and −52 the binding assays were performed in duplicates in the plate format.
(§4) The competition curves were analyzed by using SigmaPlot9. Data were fitted to a four parameter logistic curve to deduce the IC50 values. […] A=(Amax−Amin)/[L]t×(([L]t×((2×((Klig+Kcomp+[L]t+[I]t−[R]t)^2−3×(Kcomp×([L]t−[R]t)+Klig×([I]t−[R]t)+Klig×Kcomp))^0.5×COS(ARCCOS((−2×(Klig+Kcomp+[L]t+[I]t−[R]t)^3+9×(Klig+Kcomp+[L]t+[I]t−[R]t)×(Kcomp×([L]t−[R]t)+Klig×([I]t−[R]t)+Klig×Kcomp)−27×(−1×Klig×Kcomp×[R]t))/(2×((((Klig+Kcomp+[L]t+[I]t−[R]t)^2−3×(Kcomp×([L]t−[R]t)+Klig×([I]t−[R]t)+Klig×Kcomp))^3)^0.5)))/3))−(Klig+Kcomp+[L]t+[I]t−[R]t)))/((3×Klig)+((2×((Klig+Kcomp+[L]t+[I]t−[R]t)^2−3×(Kcomp×([L]t−[R]t)+Klig×([I]t−[R]t)+Klig×Kcomp))^0.5×COS(ARCCOS((−2×(Klig+Kcomp+[L]t+[I]t−[R]t)^3+9×(Klig+Kcomp+[L]t+[I]t−[R]t)×(Kcomp×([L]t−[R]t)+Klig×([I]t−[R]t)+Klig×Kcomp)−27×(−1×Klig×Kcomp×[R]t))/(2×((((Klig+Kcomp+[L]t+[I]t−[R]t)^2−3×(Kcomp×([L]t−[R]t)+Klig×([I]t−[R]t)+Klig×Kcomp))^3)^0.5)))/3))−(Klig+Kcomp+[L]t+[I]t−[R]t))))+Amin
(§5) In this equation Klig and Kcomp stand for the Kd values of the used tracer or competing inhibitor, [I]t is referring to the total concentration of the titrated inhibitor.
(§6) Inhibition constants were measured in a fluorescence polarization binding assay by titrating the compounds.
A general note: Polarisation of emitted light reports the rotation of a fluorescent probe.

A further assay concerns the target T2, FKBP52 (Homo sapiens, UniProt Q02790).
T2 construct: Purified FK1-domains of FKBP51WT (4.5 nM) with F4 (3 nM), FKBP52WT (400 nM) with F2 (20 nM); implied by Ni-NTA purification) (N); made in house; host or cells: E. coli BL21(DE3)pLysS
T2 sequence (Q02790 50-138 limits assumed): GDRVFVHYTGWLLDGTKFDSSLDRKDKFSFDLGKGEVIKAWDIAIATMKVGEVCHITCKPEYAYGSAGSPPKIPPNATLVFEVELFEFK
Briefly: Fluorescence polarization binding assay, FK1-domain of FKBP52WT with tracer F2 (selectivity FKBP51 vs. FKBP52). Conditions: selectivity factor over FKBP52. Here is the method: as §1, §2, §3, §4, §5
The Selectivity of the Compounds was Classified by Ki(FKBP51)/Ki(FKBP52)
as §6

[1] abbreviates: FK1-domain of FKBP51WT (4.5 nM) with F4 (3 nM), A series.
Setting [2] is: FKBP52WT (400 nM) with F2 (20 nM), A series.

As a reminder, the pKi is the Ki on a negative log10 scale, so that one unit is a factor of ten.

SMILES strings stand for the structures. pKi: −log10 of the molar value. Like-named read-outs stand apart in the source and are kept apart here.

Take `COc1cc([C@@H](C(=O)N2CCCC[C@H]2C(=O)OC2C=CCCC2)C2CCCCC2)cc(OC)c1OC` (mixture of isomers) [Compound C15, (2S)-cyclohex-2-en-1-yl-1-((S)-2-cyclohexyl-2-(3,4,5-trimethoxyphenyl)acetyl) piperidine-2-carboxylate]: the pKi on FKBP51 (compounds B01-C25) was 5.00 to 6.00. Besides, the “Ki(FKBP51)/Ki(FKBP52)” value at FKBP52 (compounds B01-C25) was “++ (>50 ++)”.
Regarding `COc1ccc(CCC(OC(=O)C2CCCCN2C(=O)[C@H](c2cc(OC)c(OC)c(OC)c2)[C@@H]2C=CCCC2)c2cccc(OCCN3CCOCC3)c2)cc1OC` (stereo in doubt) [Compound A12, (S)-(R)-3-(3,4-Dimethoxyphenyl)-1-(3-(2-morpholinoethoxy)phenyl)propyl-1-((S)-2-((S)-cyclohex-2-en-1-yl)-2-(3,4,5-trimethoxyphenyl)acetyl)piperidine-2-carboxylate], the pKi at FKBP51 (setting [1]) was greater than 7.00. Besides, on FKBP52 (setting [2]), the “Ki(FKBP51)/Ki(FKBP52)” value is “+++ (>500 +++)”.
As to `COc1ccc(OCCOC(=O)[C@@H]2CCCCN2C(=O)[C@H](c2cc(OC)c(OC)c(OC)c2)C2C=CCCC2)cc1OC` (stereo in doubt) [Compound A14, (S)-2-(3,4-Dimethoxyphenoxy)ethyl-1-((S)-2-((R)-cyclohex-2-en-1-yl)-2-(3,4,5-trimethoxyphenyl)acetyl)piperidine-2-carboxylate], the pKi on FKBP51 (setting [1]) is 6.00 to 7.00. Further, the “Ki(FKBP51)/Ki(FKBP52)” value at FKBP52 (setting [2]) was “++ (>50 ++)”.
In the case of `COc1ccc(CCC(OC(=O)C2CCCN2C(=O)[C@H](c2cc(OC)c(OC)c(OC)c2)C2C=CCCC2)c2cccc(OCCN3CCOCC3)c2)cc1OC` (stereo in doubt) [Compound A15, (S)-(R)-3-(3,4-dimethoxyphenyl)-1-(3-(2-morpholinoethoxy)phenyl)propyl-1-((S)-2-((R)-cyclohex-2-en-1-yl)-2-(3,4,5-trimethoxyphenyl)acetyl)pyrrolidine-2-carboxylate], on FKBP51 (setting [1]), the pKi is greater than 7.00. At FKBP52 (setting [2]), the “Ki(FKBP51)/Ki(FKBP52)” value is given as “+++ (>500 +++)”.
With `CCC(C)OC(=O)C1CCCCN1C(=O)[C@H](c1cc(OC)c(OC)c(OC)c1)C1CCCCC1` (stereo in doubt) [Compound C08, (S)-(R)-sec-butyl-1-((S)-2-cyclohexyl-2-(3,4,5-trimethoxyphenyl)acetyl) piperidine-2-carboxylate], the pKi on FKBP51 (compounds B01-C25) was 5.00 to 6.00. On FKBP52 (compounds B01-C25), the “Ki(FKBP51)/Ki(FKBP52)” value is “++ (>50 ++)”.
For `C=CC[C@H](C(=O)N1CCCC1C(=O)OC(CCc1ccc(OC)c(OC)c1)c1cccc(OCCN2CCOCC2)c1)c1cc(OC)c(OC)c(OC)c1` (stereo in doubt) [Reference A33, (S)-(R)-3-(3,4-Dimethoxyphenyl)-1-(3-(2-morpholinoethoxy)phenyl)propyl-1-((S)-2-(3,4,5-trimethoxyphenyl)pent-4-enoyl)pyrrolidine-2-carboxylate], the “Ki(FKBP51)/Ki(FKBP52)” value at FKBP52 (setting [2]) is on record as “not selective (<5 not selective)”.
As for `C=CC[C@H](C(=O)N1CCCC[C@H]1C(=O)OC(CCCc1cccnc1)CCCc1cccnc1)c1cc(OC)c(OC)c(OC)c1` [Compound A04, (S)-1,7-di(pyridin-3-yl)heptan-4-yl 1-((S)-2-(3,4,5-trimethoxyphenyl)pent-4-enoyl)piperidine-2-carboxylate], the pKi at FKBP51 (setting [1]) was 4.30 to 5.00. Moreover, the “Ki(FKBP51)/Ki(FKBP52)” value on FKBP52 (setting [2]) is listed as “+ (>5 +)”.
In the case of `C=CC[C@H](C(=O)N1CCCC[C@H]1C(=O)N[C@H](CCc1ccc(OC)c(OC)c1)c1cccc(OCCN2CCOCC2)c1)c1cc(OC)c(OC)c(OC)c1` [Compound A05, (S)-N-((R)-3-(3,4-dimethoxyphenyl)-1-(3-(2-morpholinoethoxy)phenyl)propyl)-1-((S)-2-(3,4,5-trimethoxyphenyl)pent-4-enoyl)piperidine-2-carboxamide], the pKi at FKBP51 (setting [1]) is 5.00 to 6.00. Also, the “Ki(FKBP51)/Ki(FKBP52)” value at FKBP52 (setting [2]) was “+ (>5 +)”.
For `C=CC[C@H](C(=O)N1CC=CC[C@H]1C(=O)O[C@H](CCc1ccc(OC)c(OC)c1)c1cccc(OCCN2CCOCC2)c1)c1cc(OC)c(OC)c(OC)c1` [Compound A06] the same measures were 4.30 to 5.00 and “+ (>5 +)”.
Take `COc1ccc(CC[C@@H](OC(=O)[C@@H]2CCCCN2C(=O)[C@@H](Cc2ccccc2)c2cc(OC)c(OC)c(OC)c2)c2cccc(OCC(=O)O)c2)cc1OC` [Compound A10, 2-(3-((R)-3-(3,4-dimethoxyphenyl)-1-(((S)-1-((S)-3-phenyl-2-(3,4,5-trimethoxyphenyl)propanoyl)piperidine-2-carbonyl)oxy)propyl)phenoxy)acetic acid]: the pKi at FKBP51 (setting [1]) is 4.30 to 5.00. Also, the “Ki(FKBP51)/Ki(FKBP52)” value at FKBP52 (setting [2]) was “+ (>5 +)”.
As to `COc1ccc(CC[C@@H](OC(=O)[C@@H]2CCCCN2C(=O)[C@H](c2cc(OC)c(OC)c(OC)c2)[C@@H]2C=CCCC2)c2cccc(OCC(=O)O)c2)cc1OC` [Compound A11, 2-(3-((R)-1-(((S)-1-((S)-2-((S)-Cyclohex-2-en-1-yl)-2-(3,4,5-trimethoxyphenyl)acetyl)piperidine-2-carbonyl)oxy)-3-(3,4-dimethoxyphenyl)propyl)phenoxy) acetic acid], at FKBP51 (setting [1]), the pKi was greater than 7.00. Moreover, the “Ki(FKBP51)/Ki(FKBP52)” value at FKBP52 (setting [2]) is listed as “+++ (>500 +++)”.
As for `COc1cc([C@@H](C(=O)N2CCCC[C@H]2C(=O)OC(CCCc2cccnc2)CCCc2cccnc2)[C@@H]2C=CCCC2)cc(OC)c1OC` [Compound A13, (S)-1,7-Di(pyridin-3-yl)heptan-4-yl-1-((S)-2-((S)-cyclohex-2-en-1-yl)-2-(3,4,5-trimethoxyphenyl)acetyl)piperidine-2-carboxylate], the pKi at FKBP51 (setting [1]) is greater than 7.00. For the same molecule, the “Ki(FKBP51)/Ki(FKBP52)” value at FKBP52 (setting [2]) was “+++ (>500 +++)”.
Take `COc1ccc(CCC(NC(=O)[C@@H]2CCCCN2C(=O)[C@H](c2cc(OC)c(OC)c(OC)c2)[C@@H]2C=CCCC2)c2cccc(OCC(=O)O)c2)cc1OC` (stereo partly drawn) [Compound A16, 2-(3-((R)-1-((S)-1-((S)-2-((R)-Cyclohex-2-en-1-yl)-2-(3,4,5-trimethoxyphenyl)acetyl)piper-idine-2-carboxamido)-3-(3,4-dimethoxyphenyl)propyl)phenoxy) acetic acid]: the pKi at FKBP51 (setting [1]) was 6.00 to 7.00. For the same molecule, on FKBP52 (setting [2]), the “Ki(FKBP51)/Ki(FKBP52)” value is “++ (>50 ++)”.
Turning to `COc1cc([C@@H](C(=O)N2CCCC[C@H]2C(=O)OC(CCCc2cccnc2)CCCc2cccnc2)C2CCCCC2)cc(OC)c1OC` [Compound A19, (2S)-1,7-di(pyridin-3-yl)heptan-4-yl 1-(2-cyclohexyl-2-(3,4,5-trimethoxyphenyl)acetyl)piperidine-2-carboxylate], on FKBP51 (setting [1]), the pKi is greater than 7.00. Also, the “Ki(FKBP51)/Ki(FKBP52)” value on FKBP52 (setting [2]) is listed as “+++ (>500 +++)”.
As for `COc1ccc(OCCOC(=O)[C@@H]2CCCCN2C(=O)[C@H](c2cc(OC)c(OC)c(OC)c2)C2CCCCC2)cc1OC` [Compound A20, (S)-2-(3,4-dimethoxyphenoxy)ethyl-1-((S)-2-cyclohexyl-2-(3,4,5-trimethoxyphenyl)acetyl)piperidine-2-carboxylate], the pKi on FKBP51 (setting [1]) is 6.00 to 7.00. Besides, at FKBP52 (setting [2]), the “Ki(FKBP51)/Ki(FKBP52)” value is “++ (>50 ++)”.
The corresponding values for `COc1ccc(CC[C@@H](NC(=O)[C@@H]2CCCCN2C(=O)[C@H](c2cc(OC)c(OC)c(OC)c2)C2CCCCC2)c2cccc(OCC(=O)O)c2)cc1OC` [Compound A22, 2-(3-((R)-1-((S)-1-((S)-2-cyclohexyl-2-(3,4,5-trimethoxyphenyl)acetyl)piperidine-2-carboxamido)-3-(3,4-dimethoxyphenyl)propyl)phenoxy)acetic acid] are 6.00 to 7.00 and “++ (>50 ++)”.
On to `C=CC[C@H](C(=O)N1CCSC[C@H]1C(=O)O[C@H](CCc1ccc(OC)c(OC)c1)c1cccc(OCCN2CCOCC2)c1)c1cc(OC)c(OC)c(OC)c1` [Reference A34, (R)-(R)-3-(3,4-Dimethoxyphenyl)-1-(3-(2-morpholinoethoxy)phenyl)propyl-4-((S)-2-(3,4,5-trimethoxyphenyl)pent-4-enoyl)thiomorpholine-3-carboxylate], for which the “Ki(FKBP51)/Ki(FKBP52)” value at FKBP52 (setting [2]) was “not selective (<5 not selective)”.
